The values that follow are results of earlier work, collected in patent publication US11167277B2, “Cu(I)-catalyzed azide-alkyne cycloadditions (CuAAC) ligands and methods for carrying out Cu(I)-catalyzed azide-alkyne cycloaddition reactions” (UNIVERSITY OF PITTSBURGH-OF THE COMMONWEALTH SYSTEM OF …, priority 2014, dated 2021).

Structures are written as SMILES. Where only a bound is given, the exact number is not on record here.

This data set concerns Zebrafish embryos. Particulars: co-treatment with 1 mM CuSO4, 1.5 mM sodium ascorbate and 0.1 mM TBTA; toxicity attributed to copper(I).

With `c1ccc(Cn2cc(CN(Cc3cn(Cc4ccccc4)nn3)Cc3cn(Cc4ccccc4)nn3)nn2)cc1` [TBTA], the “time beyond which Zebrafish embryos do not survive” value was at most 15 min.
